Measurements from ChEMBL document CHEMBL1146235, “Rationally designed dual inhibitors of HIV reverse transcriptase and integrase” (J Med Chem, 2007).

How the values were obtained:
[1] = target: Human immunodeficiency virus type 1 reverse transcriptase (Human immunodeficiency virus 1, UniProt Q72547); assay: Inhibition of HIV1 reverse transcriptase
[2] = target: Human immunodeficiency virus type 1 integrase (Human immunodeficiency virus 1, UniProt Q7ZJM1); assay: Inhibition of HIV1 integrase expressed in Escherichia coli BL21 (DE3)
[3] = Theraputc index, ratio of CC50 of PBMC cells to EC50 of HIV1 NL4-3; assay type: ADME, cell-based; details: read-out: Ratio CC50/EC50
[4] = Cytotoxicity against human PBMC; assay type: cell-based; details: PBMC (peripheral blood mononuclear cells)
[5] = system: Human immunodeficiency virus 1; assay: Antiviral activity against HIV1 NL4-3 in human PBMC; assay type: functional, organism-based; details: Human immunodeficiency virus 1, NL4.3
[6] = system: Human immunodeficiency virus 1; assay: Antiviral activity against HIV1 3B in CEM-SS cells by cytoprotection assay; assay type: functional; design: concentration or dose not given beside the values
[7] = Cytotoxicity against CEM-SS cells assessed as cell viability; assay type: cell-based; details: human, read-out: Activity

Human immunodeficiency virus type 1 integrase, sequence (Q7ZJM1 whole entry): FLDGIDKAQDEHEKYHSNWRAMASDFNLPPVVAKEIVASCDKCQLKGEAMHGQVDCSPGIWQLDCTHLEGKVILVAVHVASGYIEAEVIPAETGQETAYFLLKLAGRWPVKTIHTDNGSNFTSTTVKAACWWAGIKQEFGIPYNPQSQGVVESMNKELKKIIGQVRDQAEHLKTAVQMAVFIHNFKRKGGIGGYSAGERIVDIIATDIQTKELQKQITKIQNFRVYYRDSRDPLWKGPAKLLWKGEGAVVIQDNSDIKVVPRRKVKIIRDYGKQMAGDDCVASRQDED

IC50 [1] | IC50 [2] | EC50 [5] | Compound | selectivity ratio [3] | CC50 [4] | Activity [6] | viability [7]
390 nM | 700 nM |  | O=C(Nc1ccc2c(O)c(/N=N/c3ccc(C(=O)O)cc3)c(S(=O)(=O)O)cc2c1)Nc1ccc2c(O)c(/N=N/c3ccc(C(=O)O)cc3)c(S(=O)(=O)O)cc2c1 |  |  |  | 
4800 nM | 300 nM |  | O=[N+]([O-])c1ccc(C2c3c(O)nc(S)nc3Oc3nc(S)nc(O)c32)cc1 | 14 | 120000 nM |  | 
9.2 nM | 7670 nM | 17 nM | Cc1cc(C)cc(Cc2c(C(C)C)c(=O)[nH]c(=O)n2COCc2ccc(C(=O)/C=C(\O)C(=O)O)cc2)c1 | > 600 | > 10000 nM | 100% | 100%
24.2 nM | 4440 nM | 9.7 nM | CCc1c(Cc2cc(C)cc(C)c2)n(COCc2ccc(C(=O)/C=C(\O)C(=O)O)cc2)c(=O)[nH]c1=O | > 1000 | > 10000 nM | 100% | 100%
1200 nM | 1100 nM | 3000 nM | O=Cc1ccc(-c2cc(-c3cccc(C=O)c3)c(O)c(O)c(=O)c2O)cc1 | 2 | 6000 nM |  | 

The next lines start with the molecule.

Compound | IC50 [1] | IC50 [2] | EC50 [5] | selectivity ratio [3] | CC50 [4] | Activity [6] | viability [7]
O=C(O)/C(O)=C/C(=O)c1cccc(Cc2ccccc2)c1 | > 100000 nM |  | 160 nM |  | > 10000 nM |  | 
CCc1c(Cc2ccccc2)n(COCc2ccc(C(=O)/C=C(\O)C(=O)O)cc2)c(=O)[nH]c1=O | 235 nM | 1820 nM | 52 nM | > 190 | > 10000 nM | 95.2% | 91%
CC(C)c1c(Cc2ccccc2)n(COCc2ccc(C(=O)/C=C(\O)C(=O)O)cc2)c(=O)[nH]c1=O | 57 nM | 2410 nM | 33 nM | > 310 | > 10000 nM | 100% | 90%
CC(C)c1c(Cc2ccccc2)n(COCc2ccccc2)c(=O)[nH]c1=O | 16 nM | > 100000 nM | 16 nM | > 160 | > 10000 nM |  | 
